Where “and” joins values, the source holds several entries; their conditions need not be identical. Equal values may be shown once. Where a name gives a salt, the structure may show the parent alone. Read-outs that look alike come from different tables or passages of the source.
How the values were obtained:
[1] = Stability experiments using ultraperformance liquid chromatography (UPLC); assay type: physicochemical
From the text: In stability experiments using ultraperformance liquid chromatography (UPLC) we confirmed that, in accordance with the scientific literature, apomorphine hydrochloride in aqueous solutions is not stable. It is quickly decomposed on storage.

[2] = Solubilities of constituents in non-aqueous solvents; assay type: physicochemical; conditions: organic solvent or mixture
Protocol: In a series of experiments, the solubilities of several constituents that may be used in the solution of the present invention were measured: […]

[3] = water; also printed as 1% w/w; cited from earlier work
[4] = system: Parkinson's disease subjects; conditions: cited from earlier work; for time to peak benefit: nine Parkinson's disease subjects
[5] = system: ciliated respiratory tissue; conditions: 25% propylene glycol, 15% glycerol, 25% polyethylene glycol 400, 5% povidone in Locke-Ringer solution (WO2005/067893); cited from earlier work
[6] = system: ciliated respiratory tissue; experiment: Effect on ciliary beat frequency (CBF) of ciliated tissue, rinsing with Locke-Ringer solution after 15 minutes; assay type: cell-based; conditions: for reversibility of effect on CBF: rinsing with LR after 15 minutes
Protocol: Disclosed are in vitro experiments, according to a previously published method (Merkus et al, 2001), describing the effect of four different solubilizers [25% propylene glycol, 15% glycerol, 25% polyethylene glycol 400 and 5% povidone], dissolved in a Locke-Ringer solution, on the ciliary beat frequency (CBF) of ciliated tissue. […] However, after rinsing with a pure Locke-Ringer solution, the effects on CBF appeared to be completely reversed within 20 minutes.
No ciliary beat frequency could be measured any more. […] Obviously the ciliated cells have been irreversibly damaged by the extreme hyperosmolar concentration of 50% propylene glycol. […] Thus, a nasal formulation containing a drug like apomorphine, dissolved in 50% or more (v/v) propylene glycol, is not a viable option, because it has to be administered in Parkinson's disease on a regular basis, for instance daily or several times per day or per week. On the other hand, such a high concentration of propylene glycol is needed to solubilise sufficient apomorphine (several mg per 0.1 ml) to treat a patient with off-periods in Parkinson's disease.
FIG. 1 is a graph showing the effect of 10% (v/v) propylene glycol (closed circles) or control (open circles) on ciliary beat frequency (CBF) of ciliated respiratory tissue. After 15 minutes contact with 10% (v/v) propylene glycol, tissue is rinsed with pure Locke-Ringer (LR) solution.
FIG. 2 is a graph showing the effect of 25% (v/v) propylene glycol (closed circles) or control (open circles) on ciliary beat frequency (CBF) of ciliated respiratory tissue. After 15 minutes contact with 25% (v/v) propylene glycol, tissue is rinsed with pure Locke-Ringer (LR) solution.
FIG. 3 is a graph showing the effect of 50% (v/v) propylene glycol (closed circles) or control (open circles) on ciliary beat frequency (CBF) of ciliated respiratory tissue. After 15 minutes contact with 50% (v/v) propylene glycol, tissue is rinsed with pure Locke-Ringer (LR) solution.
After 15 minutes contacts with 10% (v/v) propylene glycol, tissue is rinsed with pure Locke-Ringer (LR) solution.
After 15 minute contacts with 25% (v/v) propylene glycol, tissue is rinsed with pure Locke-Ringer (LR) solution.
After 15 minute contacts with 50% (v/v) propylene glycol, tissue is rinsed with pure Locke-Ringer (LR) solution.

[7] = solvent ethanol, read-out: solubility in ethanol
[8] = solvent propylene glycol, read-out: solubility in propylene glycol
[9] = 10% propylene glycol in Locke-Ringer solution, time 0 min
[10] = 10% propylene glycol in Locke-Ringer solution, time 5 min
[11] = 10% propylene glycol in Locke-Ringer solution, time 10 min
[12] = 10% propylene glycol in Locke-Ringer solution, time 15 min
[13] = 10% propylene glycol, time 20 min, after rinsing with LR at 15 min
[14] = 10% propylene glycol, time 30 min, after rinsing with LR at 15 min
[15] = 10% propylene glycol, time 40 min, after rinsing with LR at 15 min
[16] = 10% propylene glycol, time 50 min, after rinsing with LR at 15 min
[17] = 10% propylene glycol, time 60 min, after rinsing with LR at 15 min
[18] = 25% propylene glycol in Locke-Ringer solution, time 0 min
[19] = 25% propylene glycol in Locke-Ringer solution, time 15 min
[20] = 25% propylene glycol, time 20 min, after rinsing with LR at 15 min
[21] = 25% propylene glycol, time 30 min, after rinsing with LR at 15 min
[22] = 25% propylene glycol, time 40 min, after rinsing with LR at 15 min
[23] = 25% propylene glycol, time 50 min, after rinsing with LR at 15 min
[24] = 25% propylene glycol, time 60 min, after rinsing with LR at 15 min
[25] = 50% propylene glycol in Locke-Ringer solution, time 0 min
[26] = 50% propylene glycol in Locke-Ringer solution, time 5 min
[27] = 50% propylene glycol in Locke-Ringer solution, time 10 min
[28] = 50% propylene glycol in Locke-Ringer solution, time 15 min
[29] = 50% propylene glycol, time 20 min, after rinsing with LR at 15 min
[30] = 50% propylene glycol, time 30 min, after rinsing with LR at 15 min
[31] = 50% propylene glycol, time 40 min, after rinsing with LR at 15 min
[32] = 50% propylene glycol, time 50 min, after rinsing with LR at 15 min
[33] = 50% propylene glycol, time 60 min, after rinsing with LR at 15 min

SMILES: CN1CCc2cccc3c2[C@H]1Cc1ccc(O)c(O)c1-3 [Apomorphine HCl]
- stability on storage ([1]; aqueous solutions): not stable
- stability on storage ([1]; non-aqueous solutions in propylene glycol, compared with aqueous): more stable
- solubility ([2]; solvent PEG 400, read-out: solubility in PEG 400): 15 mg/mL
- solubility [2, 7]: 20 mg/mL
- solubility ([2]; solvent glycerol, read-out: solubility in glycerol): 35 mg/mL
- solubility [2, 8]: 80 mg/mL

SMILES: O=C1NS(=O)(=O)c2ccccc21.[Na] [Saccharin sodium]
- solubility [2, 7]: 20 mg/mL
- solubility [2, 8]: 250 mg/mL

SMILES: CN1CCc2cccc3c2[C@H]1Cc1ccc(O)c(O)c1-3 [apomorphine]
- aqueous solubility [3]: about 10 mg/ml
- time to peak benefit ([4]; 3 mg apomorphine subcutaneous injection): 21 min
- time to peak benefit ([4]; 30 mg apomorphine sublingual tablets): > 40 min
- stomatitis on chronic use ([4]; chronic use of the sublingual formulation): severe stomatitis in half the subjects

SMILES: OCC(O)CO [glycerol]
- effect on CBF after 15 minutes [5]: strong decrease

SMILES: CC(O)CO (stereo not shown) [propylene glycol]
- effect on CBF after 15 minutes [5]: strong decrease
- CBF (% of initial value), Mean [6, 9]: 100 % of initial value
- CBF (% of initial value), single experiments [6, 9]: 100 % of initial value
- CBF (% of initial value), Mean [6, 10]: 54 % of initial value
- CBF (% of initial value), single experiments [6, 10]: 46 % of initial value and 58 % of initial value and 56 % of initial value and 51 % of initial value and 60 % of initial value
- CBF (% of initial value), Mean [6, 11]: 54 % of initial value
- CBF (% of initial value), single experiments [6, 11]: 50 % of initial value and 55 % of initial value and 63 % of initial value and 45 % of initial value
- CBF (% of initial value), Mean [6, 12]: 50 % of initial value
- CBF (% of initial value), single experiments [6, 12]: 57 % of initial value and 52 % of initial value and 43 % of initial value and 51 % of initial value and 45 % of initial value
- reversibility of effect on CBF ([6]; 10% propylene glycol): reversible
- CBF (% of initial value), Mean [6, 13]: 98 % of initial value
- CBF (% of initial value), single experiments [6, 13]: 91 % of initial value and 92 % of initial value and 118 % of initial value and 110 % of initial value and 76 % of initial value
- CBF (% of initial value), Mean [6, 14]: 97 % of initial value
- CBF (% of initial value), single experiments [6, 14]: 94 % of initial value and 87 % of initial value and 110 % of initial value and 99 % of initial value and 93 % of initial value
- CBF (% of initial value), Mean [6, 15]: 96 % of initial value
- CBF (% of initial value), single experiments [6, 15]: 84 % of initial value and 91 % of initial value and 109 % of initial value and 102 % of initial value and 93 % of initial value
- CBF (% of initial value), Mean [6, 16]: 95 % of initial value
- CBF (% of initial value), single experiments [6, 16]: 82 % of initial value and 103 % of initial value and 106 % of initial value and 99 % of initial value and 86 % of initial value
- CBF (% of initial value), Mean [6, 17]: 94 % of initial value
- CBF (% of initial value), single experiments [6, 17]: 85 % of initial value and 94 % of initial value and 106 % of initial value and 99 % of initial value and 84 % of initial value
- CBF (% of initial value), Mean [6, 18]: 100 % of initial value
- CBF (% of initial value), single experiments [6, 18]: 100 % of initial value
- CBF (% of initial value), Mean ([6]; 25% propylene glycol in Locke-Ringer solution, time 5 min): 11 % of initial value
- CBF (% of initial value), Mean ([6]; 25% propylene glycol in Locke-Ringer solution, time 10 min): 3 % of initial value
- CBF (% of initial value), Mean [6, 19]: 0 % of initial value
- CBF (% of initial value), single experiments [6, 19]: 0 % of initial value
- reversibility of effect on CBF ([6]; 25% propylene glycol): reversible
- CBF (% of initial value), Mean [6, 20]: 80 % of initial value
- CBF (% of initial value), single experiments [6, 20]: 86 % of initial value and 72 % of initial value and 85 % of initial value and 69 % of initial value and 87 % of initial value
- CBF (% of initial value), Mean [6, 21]: 86 % of initial value
- CBF (% of initial value), single experiments [6, 21]: 68 % of initial value and 101 % of initial value and 83 % of initial value and 89 % of initial value and 94 % of initial value
- CBF (% of initial value), Mean [6, 22]: 97 % of initial value
- CBF (% of initial value), single experiments [6, 22]: 97 % of initial value and 103 % of initial value and 99 % of initial value and 89 % of initial value and 94 % of initial value
- CBF (% of initial value), Mean [6, 23]: 98 % of initial value
- CBF (% of initial value), single experiments [6, 23]: 100 % of initial value and 102 % of initial value and 103 % of initial value and 91 % of initial value and 92 % of initial value
- CBF (% of initial value), Mean [6, 24]: 97 % of initial value
- CBF (% of initial value), single experiments [6, 24]: 102 % of initial value and 103 % of initial value and 94 % of initial value and 91 % of initial value
- cilia activity ([6]; 50% (v/v) propylene glycol, after 5-15 minutes contact): completely arrested
- CBF (% of initial value), Mean [6, 25]: 100 % of initial value
- CBF (% of initial value), single experiments [6, 25]: 100 % of initial value
- CBF (% of initial value), Mean [6, 26]: 0 % of initial value
- CBF (% of initial value), single experiments [6, 26]: 0 % of initial value
- CBF (% of initial value), Mean [6, 27]: 0 % of initial value
- CBF (% of initial value), single experiments [6, 27]: 0 % of initial value
- CBF (% of initial value), Mean [6, 28]: 0 % of initial value
- CBF (% of initial value), single experiments [6, 28]: 0 % of initial value
- reversibility of effect on CBF ([6]; 50% propylene glycol): not reversible
- CBF (% of initial value), Mean [6, 29]: 0 % of initial value
- CBF (% of initial value), single experiments [6, 29]: 0 % of initial value
- CBF (% of initial value), Mean [6, 30]: 0 % of initial value
- CBF (% of initial value), single experiments [6, 30]: 0 % of initial value
- CBF (% of initial value), Mean [6, 31]: 0 % of initial value
- CBF (% of initial value), single experiments [6, 31]: 0 % of initial value
- CBF (% of initial value), Mean [6, 32]: 0 % of initial value
- CBF (% of initial value), single experiments [6, 32]: 0 % of initial value
- CBF (% of initial value), Mean [6, 33]: 0 % of initial value
- CBF (% of initial value), single experiments [6, 33]: 0 % of initial value
